Measurements published in PMC12688703, “NirA is a Cyanide‐Tolerant Nitrite Reductase Which Protects Pseudomonas aeruginosa From Self‐Poisoning” (Environmental Microbiology Reports, 2025).

Biological target: T1, CysI (Pseudomonas aeruginosa, UniProt Q9I2Q7)
T1 construct: full orf with N-terminal hexahistidine tag (pSKcysI-N), E. coli BL21 (DE3) suf++ with pCDF-cysG; IMAC and SEC
T1 sequence (Q9I2Q7 1-552): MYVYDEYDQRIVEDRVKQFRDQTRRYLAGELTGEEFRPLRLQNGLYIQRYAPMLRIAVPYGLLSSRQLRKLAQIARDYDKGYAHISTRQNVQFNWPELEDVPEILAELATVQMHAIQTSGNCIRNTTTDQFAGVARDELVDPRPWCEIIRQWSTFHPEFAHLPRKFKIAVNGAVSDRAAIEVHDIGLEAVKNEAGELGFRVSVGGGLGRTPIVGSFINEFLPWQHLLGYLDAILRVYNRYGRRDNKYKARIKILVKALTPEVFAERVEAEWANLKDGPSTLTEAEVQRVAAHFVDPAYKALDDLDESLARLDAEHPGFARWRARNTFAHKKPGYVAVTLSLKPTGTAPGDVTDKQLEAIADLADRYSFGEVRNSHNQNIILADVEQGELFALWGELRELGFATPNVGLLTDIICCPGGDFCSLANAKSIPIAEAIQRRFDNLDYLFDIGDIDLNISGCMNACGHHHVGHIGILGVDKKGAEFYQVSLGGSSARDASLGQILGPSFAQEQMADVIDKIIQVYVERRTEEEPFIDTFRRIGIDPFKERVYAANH
Experiment: methyl viologen oxidation at […] nm
Format: biochemical
Conditions: anaerobic; methyl viologen as electron donor

O=S(O)O [hydrogen sulphite]
methyl viologen oxidation at 605 nm: Potassium nitrite and hydrogen sulphite were used as electron acceptors for NirA and CysI
